Experimental findings from US12084521B2, “TLR9 inhibitors to suppress inflammatory response to pathogens” (University Of Maryland, Baltimore, priority 2018, dated 2024) are described below.

“Also recorded” adds a separate entry of the source.

The subject of experiment [1] is TLR9 signaling. The experiment can be described thus: ODN 1668-induced cytokine mRNA expression in BMDM (quantitative real time PCR). It is filed as cell-based, mouse. Conditions: BMDM; for inhibition of TLR9 signaling (ODN 1668-induced cytokine mRNA, overall): peptide 10, 20 or 40 μM, ODN 1668 1 μM. As for the experimental part:
The cDNA obtained was amplified with gene-specific primers for mouse HPRT, TNFα, IL-10, IL-12-p40, or IL-6 and Fast SYBR Green™ master mix (Applied Biosystemsm) as previously described.
Mouse BMDMs were incubated in the presence of a 10, 20 or 40 μM decoy peptide for 30 minutes prior to stimulation with ODN 1668 (1 μM). […] Data represent the means±SEM of at least three independent experiments. The statistical significance of changes in cytokine mRNA was determined by a one-way ANOVA test; *p<0.001. Peptides 9R3 and 9R34 have overlapping sequences (see Table 1).
To investigate inhibition of TLR9 signaling by 9R34 analogues, the following work was performed. Mouse BMDMs were incubated in the presence of a 10, 20 or 40 μM decoy peptide for 30 minutes prior to stimulation with ODN 1668 (1 μM). Cytokine mRNA expression was measured 1 hour after ODN 1668 challenge and normalized to the expression of HPRT. See also Table 1. Data represent means±SEM of at least three independent experiments.
(In qPCR the cycle at which signal appears reflects the starting amount.)

Experiment [2] addresses T1, MyD88 TIR (Homo sapiens, UniProt Q99836).
T1 construct: expressed in transfected cells; host or cells: HeLa
The experiment can be described thus: FLIM/FRET binding of Cy3-labeled peptides to Cer-fused TIR in HeLa cells. As for the experimental part: (§1) Three million HeLa cells were transfected with 10 μg of MyD88-Cer, TIRAP-Cer, TRAM-Cer, TLR2-Cer, TLR4 TIR-Cer, or TLR9 TIR-Cer expression vectors using a Lipofectamine™ 3000 kit from Invitrogen™ per manufacturer recommendations. Twenty four hours later, the transfected cells were trypsinized and reseeded into a 50-well gasket (Grace Bio-Labs™) mounted on a microscope slide at the density 8000 cells/well. The next day, cells were treated with Cy3-9R34-ΔN or Cy3-9R11 for 1 hour and fixed on the slides with a 4% paraformaldehyde solution.
(§2) Fluorescence lifetime images were acquired using the Alba V FLIM™ system (ISS™ Inc.). The excitation was from the laser diode 443 nm coupled with scanning module (ISS™) through multiband dichroic filter 443/532/635 nm (Semrock™) to Olympus™ IX71S microscope with objective 20×0.45 NA (UPlan™ Olympus™). Emission was observed through bandpass filter […] (Chroma Technology™) and detected by a photomultiplier H7422-40 (Hamamatsu™). Measurements were performed using frequency domain (FD) and time domain (TD) modalities of the FLIM system. FD FLIM data were acquired using ISS™ A320 FastFLIM™ electronics with n harmonics of 20 MHz laser repetition frequency (n=1, 2, 3, 4, 5, 6). FastFLIM™ was calibrated using fluorescein in buffer pH 8.0 as a standard with a single lifetime of 4.0 ns. TD FLIM images were acquired using time-correlated single photon counting TCSPC™ Model SPC-830 (Becker & Hick™).
(§3) Images (256×256 pixels) were acquired with resolution varied in the range ˜0.4-0.7 μm/pixel, using scan speed 1 ms/pixel. To avoid pixel intensity saturation in bright cells and to improve the signal from dim cells, two to five overlapping scans were used for acquisition of FLIM images. Image sizes varied from 100×100 to 180×180 μm to accommodate multiple cells. FLIM data were analyzed with VistaVision™ Suite software (Vista™ v.212 from ISST). Fluorescence lifetime was determined using single- and bi-exponential intensity decay models. Average lifetime images were generated based on pixel-by-pixel analysis using the combined signal of two neighboring pixels in all directions (bin 2=25 pixels). The binning was used to improve the signal for analysis. The average lifetimes were calculated from fitted parameters, decay times τi and amplitudes αi, τa=Σαiτi. The bi-exponential fitting procedure was performed with one lifetime component fixed at 3.1 nsec, which was found common for most images. To calculate the effective FRET efficiency (E), average lifetimes of the donor only images (τD) and donor-acceptor images (τDA) were used, E=1−τDA/τD.
(§4) To identify potential binding partners of inhibitory peptides a FRET approach coupled with Fluorescence Lifetime Imaging Microscopy (FLIM) was used. HeLa cells were transiently transfected with an expression vector that encodes a TIR domain fused with Cerulean fluorescent protein (Cer). Cells were treated with various concentrations of a Cy3-labeled inhibitory peptide 48 hours after transfection. Cy3 is a suitable FRET acceptor for Cer fluorescence. A direct molecular interaction of a Cy3-labeled peptide with Cer-fused TIR domain should quench Cer fluorescence, leading to a decreased fluorescence lifetime.
(§5) TLR9, MyD88, and TIRAP were selected as potential primary binding partners for Cy3-9R34-ΔN and Cy3-9R11. Cer-fused TLR2 and TLR4 TIR domains, and Cer not fused to a TIR, were used as controls. […] Therefore, the TIRAP-Cer with Cy3-2R9 was used as a positive binding control. Binding of Cy3-labeled CPDPs to Cerulean- (Cer-) labeled TIR domains was tested as follows. Fluorescence Lifetime IMages (FLIM) were made of HeLa cells expressing Cer not fused with a TIR domain (upper row) or fused with TLR9 TIR or TIRAP TIR (middle and bottom rows) and treated with a Cy3-labeled decoy peptide for 1 hour.
(§6) A progressive shift of average fluorescence lifetime towards lower values observed with increasing peptide concentrations indicates the binding between donor and acceptor moieties. […]

For experiment [3], the target named is T2, TIRAP TIR (Homo sapiens, UniProt P58753).
T2 construct: fused with TLR9 TIR or TIRAP TIR; expressed in transfected cells; host or cells: HeLa
T2 sequence (P58753 84-213 limits assumed): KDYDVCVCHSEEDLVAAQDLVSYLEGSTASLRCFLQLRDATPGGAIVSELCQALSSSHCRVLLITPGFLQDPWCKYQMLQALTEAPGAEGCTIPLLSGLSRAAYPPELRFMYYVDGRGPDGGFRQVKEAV
The description is as above. As for the experimental part: as §1, §2, §3, §4, §5, §6

Experiment [4] has as its target T3, TLR9 TIR (Homo sapiens, UniProt Q9NR96).
T3 construct: expressed in transfected cells; host or cells: HeLa
T3 sequence (Q9NR96 868-1013 limits assumed): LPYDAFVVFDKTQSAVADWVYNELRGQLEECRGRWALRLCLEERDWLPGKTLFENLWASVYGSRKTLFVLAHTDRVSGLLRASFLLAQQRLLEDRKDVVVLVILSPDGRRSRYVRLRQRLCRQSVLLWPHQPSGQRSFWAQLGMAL
The experiment is described as above. As for the experimental part:
as §1, §2, §3, §4, §5, §6

Setting [5] is: peptide 10, 20 or 40 μM 30 min before ODN 1668 (1 μM), 1 hour, normalized to HPRT.

T1 sequence (Q99836 159-293 limits assumed): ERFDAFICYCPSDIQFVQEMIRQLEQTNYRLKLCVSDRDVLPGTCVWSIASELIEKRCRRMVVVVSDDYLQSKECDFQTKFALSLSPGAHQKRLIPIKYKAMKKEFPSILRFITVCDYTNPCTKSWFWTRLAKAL

ALRLCLEERD [Peptide 9R34-ΔN]: the “inhibition of TLR9 signaling (ODN 1668-induced cytokine mRNA, overall)” value in experiment [1] is “as potent as the parent peptide; also recorded: inhibited TLR9 signaling more potently than 9R3”. For the same sequence, the “interaction with MyD88 TIR (FLIM summary)” value in experiment [2] was “did not interact”. Besides, the “binding to TIRAP TIR (FLIM summary)” value in experiment [3] is given as “bind”. Also, the “binding to TLR9 TIR (FLIM summary)” value in experiment [4] is “bind”.

Take RSFWAQLGMALTRD (Synthetic peptide 9R11): in experiment [1] (peptide 10, 20 or 40 μM 30 min before ODN 1668 (1 μM), 1 hour after stimulation, normalized to HPRT), the “TNFα mRNA expression” value was “significantly suppressed”. In addition, in experiment [1] (setting [5]), the “IL-10 mRNA expression” value is recorded as “significantly suppressed” and the “IL-12-p40 mRNA expression” value is recorded as “significantly suppressed”. Besides, the “inhibition of TLR9 signaling (ODN 1668-induced cytokine mRNA, overall)” value in experiment [1] was “inhibit TLR9 signaling”. Further, the “interaction with MyD88 TIR (FLIM summary)” value in experiment [2] is recorded as “interacted with the MyD88 TIR, but with a lower affinity”. Further, in experiment [3], the “binding to TIRAP TIR (FLIM summary)” value is listed as “bind”. The “binding to TLR9 TIR (FLIM summary)” value in experiment [4] was “bind”.
